Where “and” joins values, the source holds several entries; their conditions need not be identical. Equal entries are not always repeated.
What was measured:
Format in all cases: cell-based, human
UMPS knockout T cells [1] = experiment: Uracil auxotrophy growth assay after 5-FOA selection; settings: after 4 days 5-FOA selection, 4 days in supplemented media, without serum
Description: To assay whether or not the cells selected for by 5-FOA treatment were uracil auxotrophs, mock or UMPS targeted T cells were exposed to 5-FOA as shown in Example 4. Following 4 days of 5-FOA selection, the population of cells was split into an uracil containing media (UMP, uridine or both) and an uracil deficient media. A growth assay was subsequently performed by cell counting after following 4 days incubation in test media (Day 8) (FIG. 4A). In all cases, cell growth in the mock targeted cell cultures was negligible and independent of uracil source supplementation—indicating successful killing of non-UMPS targeted cells during the 5-FOA selection step (FIG. 4B-FIG. 4D).

Mock T cells [2] = experiment: Growth time course with/without UMP or uridine; settings: metabolite 250 μg/ml
Description: (§1) Genomic DNA was harvested using QUICKEXTRACT™ DNA Extraction Kit (Epicentre). Cells were counted on an automated cell counter using Trypan blue staining or on a CytoFLEX flow cytometer (Beckman Coulter) with automatic plate reader using COUNTBRIGHT™ beads (ThermoFisher) as a reference for normalizing the values. Alternatively, cells were analyzed after staining with fluorochrome-labelled antibodies (Biolegend) on an ACCURI™ C6 flow cytometer (BD Biosciences), which also measures volumes, or a FACS ARIA™ II SORP cell sorter (BD Biosciences). Data was analyzed using Excel (Microsoft) and FlowJo software (Tree Star).
(§2) T Cells were electroporated and edited as in Example 2 and allowed to recover for a 4-day period in medium with serum, uridine, and UMP. On day 4, cells were shifted to UMP, uridine, or uracil source media.
(§3) To evaluate whether the UMPS knockout leads to differential cell proliferation if cultured without the addition of Uridine or Uridine monophosphate (UMP), the cell counts in culture were followed over time by automatic cell counting with Trypan blue staining. UMPS knockout led to lower cell counts from day 2 after electroporation, compared to cells that were mock electroporated or electroporated using Cas9 targeting a different genomic locus (i.e., CCR5) (FIG. 5B).

CCR5 knockout T cells = experiment: Growth time course with/without UMP or uridine; settings: metabolite 250 μg/ml
Description: as §1, §2, §3

UMPS knockout T cells [3] = experiment: Growth time course with/without UMP or uridine
Description: as §1, §2, §3

UMPS edited T cells = experiment: TIDE analysis of UMPS InDels in mixed UMPS edited population
Description: Sanger sequencing of the UMPS locus was performed using UMPS-O-1 and UMPS-O-2, with the region amplified using PHUSION™ Hot Start Flex 2x Master Mix (New England Biolabs, Inc.). Sanger sequencing traces were analyzed by TIDE analysis (see, Brinkman et al, 2014, Nucleic Acids Res. 42(22):e168), which is hereby incorporated by reference in its entirety) to identify insertions and deletions (InDels) after editing. InDel quantification was performed on the sequences using the TIDE online tool (www.deskgen.com/landing/tide.html) (See, M. Sadelain, N. Engl. J. Med. 365, 1735-7 (2011), which is hereby incorporated by reference in its entirety.
T Cells were electroporated and edited as in Example 2 and allowed to recover for a 4-day period in medium with serum, uridine, and UMP. On day 4, cells were shifted to UMP, uridine, or uracil source media. […]
To confirm the results on the genomic level, genomic DNA was harvested at the end of the experiment and InDels were quantified (FIG. 5D-FIG. 5E). FIG. 5D compares the frequency of InDels in different culture conditions for cells not exposed to 5-FOA.

Mock T cells [4] = experiment: 5-FOA selection, cell counts after 4 days
Description: (§4) 5-FOA selects for uracil auxotrophic cells in other organisms (e.g. Boeke et al. 1984, Mol. Gen. Genet. 197(2):345-6), which is hereby incorporated by reference in its entirety). To investigate the potential utility of 5-FOA for the selection of uracil auxotrophs among human cells, the UMPS gene was targeted in human T cells by Cas9-gRNA complex electroporation followed by recovery (as shown in Example 2) followed by an assay of resistance to 5-FOA treatment (FIG. 3A). Cells were grown in 5-FOA and a variety of combinations of serum and uracil sources for 4 days before cell counting was performed.

UMPS-7 targeted T cells = experiment: 5-FOA selection, cell counts after 4 days
Description: as §4

[5] = UMPS knockout, metabolite 250 μg/ml
[6] = cells not exposed to 5-FOA, end of experiment, metabolite 250 μg/ml

How did the “Cells counts on Day 8” value (UMPS knockout T cells [1]) turn out when O=c1ccn([C@@H]2O[C@H](COP(=O)(O)O)[C@@H](O)[C@H]2O)c(=O)[nH]1 [UMP, Uridine monophosphate] was run?
The value was 9978 and 6392.

And the “Cell density, Day 1” value (Mock T cells [2])?
Its value is 9.83E+05 cells per ml.

And the “Cell density, Day 2” value (Mock T cells [2])?
The value was 2.01E+06 cells per ml.

What about the “Cell density, Day 4” value (Mock T cells [2]) of the same compound?
Its value is 3.80E+06 cells per ml.

What about the “Cell density, Day 6” value (Mock T cells [2]) of the same compound?
Its value is 4.18E+06 cells per ml.

What about the “Cell density, Day 8” value (Mock T cells [2]) of the same compound?
The value was 3.90E+06 cells per ml.

What about the “Cell density, Day 1” value (CCR5 knockout T cells) of the same compound?
The value was 1.02E+06 cells per ml.

What about the “Cell density, Day 2” value (CCR5 knockout T cells) of the same compound?
The value was 1.80E+06 cells per ml.

What about the “Cell density, Day 4” value (CCR5 knockout T cells) of the same compound?
The value was 3.32E+06 cells per ml.

What about the “Cell density, Day 6” value (CCR5 knockout T cells) of the same compound?
The value was 3.80E+06 cells per ml.

And the “Cell density, Day 8” value (CCR5 knockout T cells)?
Its value is 4.03E+06 cells per ml.

And the “Cell density, Day 1” value (UMPS knockout T cells [3]; [5])?
Its value is 8.74E+05 cells per ml.

And the “Cell density, Day 2” value (UMPS knockout T cells [3]; [5])?
The value was 1.86E+06 cells per ml.

What about the “Cell density, Day 4” value (UMPS knockout T cells [3]; [5]) of the same compound?
Its value is 3.47E+06 cells per ml.

What about the “Cell density, Day 6” value (UMPS knockout T cells [3]; [5]) of the same compound?
Its value is 3.88E+06 cells per ml.

And the “Cell density, Day 8” value (UMPS knockout T cells [3]; [5])?
The value was 3.63E+06 cells per ml.

And the “Number of viable cells per ml, Day 1” value (UMPS knockout T cells [3]; [5])?
Its value is 874000 cells per ml.

And the “Number of viable cells per ml, Day 2” value (UMPS knockout T cells [3]; [5])?
Its value is 1860000 cells per ml.

What about the “Number of viable cells per ml, Day 4” value (UMPS knockout T cells [3]; [5]) of the same compound?
The value was 3470000 cells per ml.

What about the “Number of viable cells per ml, Day 6” value (UMPS knockout T cells [3]; [5]) of the same compound?
Its value is 3880000 cells per ml.

And the “Number of viable cells per ml, Day 8” value (UMPS knockout T cells [3]; [5])?
The value was 3630000 cells per ml.

What about the “growth of UMPS edited culture” value (UMPS knockout T cells [3]; exogenous uracil source 250 μg/ml) of the same compound?
The value was “rescued the growth of an UMPS edited culture to the same level as mock edited cells”.

And the “cell proliferation after UMPS knockout” value (UMPS knockout T cells [3]; supplemented at 250 μg/ml)?
Its value is “not impaired”.

And the “Alleles with frameshift InDels, Percent of alleles (without 5-FOA)” value (UMPS edited T cells; TIDE, day 8, metabolite 250 μg/ml)?
Its value is 46.1%.

And the “Alleles with InDels, Percent of alleles (without 5-FOA)” value (UMPS edited T cells; TIDE, metabolite 250 μg/ml)?
The value was 71.1%.

What about the “frameshift InDel frequency, Percent” value (UMPS edited T cells; [6]) of the same compound?
Its value is 46.1%.

And the “overall InDel frequency, Percent (%)” value (UMPS edited T cells; [6])?
The value was 71.1%.

And the “Predicted viable cell counts, Cells with In-frame InDel” value (UMPS edited T cells; day 8, metabolite 250 μg/ml)?
The value was 908000.

And the “Predicted viable cell counts, Cells with frameshift InDel” value (UMPS edited T cells; day 8, metabolite 250 μg/ml)?
The value was 1670000.

What about the “Predicted viable cell counts, Cells without InDel” value (UMPS edited T cells; day 8, metabolite 250 μg/ml) of the same compound?
The value was 1049070.

And the “Average of cells per volume unit” value (Mock T cells [4]; Mock, 4 days in 5-FOA without serum, with substrate)?
The value was 24770.99 cells per volume unit.

What about the “survival in 5-FOA compared to control” value (Mock T cells [4]; mock treated cells) of the same compound?
Its value is “improved the survival”.

And the “survival in 5-FOA compared to control” value (UMPS-7 targeted T cells; UMPS targeted cells)?
The value was “improved the survival”.

And the “Average of cells per volume unit” value (UMPS-7 targeted T cells; UMPS-7, 4 days in 5-FOA without serum, with substrate)?
Its value is 58299.26 cells per volume unit.

Source: patent US20210052741A1, “GENE THERAPY METHODS AND COMPOSITIONS USING AUXOTROPHIC REGULATABLE CELLS” (AUXOLYTIC LTD, priority 2018, published 2021)
